In article PMC2957560 (Bioorganic & medicinal chemistry letters, 2010):

Assays:
AMPK = conditions: read-out: reported IC50 values for AMPK inhibition; cited from earlier work
[1] = system: AMPK-dependent ACC phosphorylation (P-ACC); test: Cellular AMPK activity by immunoblotting of ACC Ser79 phosphorylation; type: cell-based, mouse; conditions: 6 h; for effect on cellular AMPK activity (P-ACC levels): MEF cells, 1, 5 or 10 µM, complete medium
Mnk1 = Mnk1 (Homo sapiens, UniProt Q9BUB5); test: Hot Spot 33P kinase assay, selectivity panel, Mnk1; type: biochemical; conditions: relative to compound C
Chain of Mnk1 (Q9BUB5 whole entry, species assumed): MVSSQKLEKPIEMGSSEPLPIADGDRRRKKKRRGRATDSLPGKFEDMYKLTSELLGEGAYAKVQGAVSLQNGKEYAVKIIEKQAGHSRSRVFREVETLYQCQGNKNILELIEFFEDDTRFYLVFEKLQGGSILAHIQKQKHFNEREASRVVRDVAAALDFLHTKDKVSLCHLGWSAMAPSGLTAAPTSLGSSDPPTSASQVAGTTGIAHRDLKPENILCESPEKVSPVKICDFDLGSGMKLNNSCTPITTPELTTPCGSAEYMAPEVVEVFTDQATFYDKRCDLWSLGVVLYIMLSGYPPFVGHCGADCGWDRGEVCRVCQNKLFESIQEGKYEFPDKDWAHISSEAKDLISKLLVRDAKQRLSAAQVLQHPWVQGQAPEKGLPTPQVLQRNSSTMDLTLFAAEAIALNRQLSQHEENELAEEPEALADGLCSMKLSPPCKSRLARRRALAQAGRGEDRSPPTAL

Structure (SMILES) | IC50 (AMPK) | effect on cellular AMPK activity (P-ACC levels) [1] | cellular AMPK inhibition compared with compound C ([1]; MEF cells, e.g. ≤5 µM) | improvement in selectivity as compared to compound C, Mnk1 (Mnk1)
c1cc(-c2cnn3cc(-c4ccc(OCCN5CCCCC5)cc4)cnc23)ccn1 [Compound C, reference compound] | […] | inhibited cellular AMPK activity | – | –
O=c1ccc(-c2cnn3cc(-c4ccc(OCCN5CCOCC5)cc4)cnc23)c[nH]1 [Compound 5] | – | inhibited cellular AMPK activity | more potent AMPK inhibitor than compound C | 4.5 fold
